Assay results reported in the NIST ThermoML archive (doi:10.1021/je300234g).
± gives the expanded uncertainty stated by the source.

Experiments:
[1] = Crystal; visual observation
[2] = relative permittivity at zero frequency (dimensionless); settings: 101.3 kPa, Liquid, Parallel plate capacitor

C1COCCOCCOCCO1 [1,4,7,10-tetraoxacyclododecane]
Normal melting temperature [1]: 16 ± 1 °C | relative permittivity at zero frequency ([2]; 295.65 K): 10.95 ± 0.11 | relative permittivity at zero frequency ([2]; 298.15 K): 10.82 ± 0.11 | relative permittivity at zero frequency ([2]; 300.65 K): 10.7 ± 0.11 | relative permittivity at zero frequency ([2]; 303.15 K): 10.58 ± 0.11 | relative permittivity at zero frequency ([2]; 305.65 K): 10.45 ± 0.1 | relative permittivity at zero frequency ([2]; 308.15 K): 10.34 ± 0.1 | relative permittivity at zero frequency ([2]; 310.65 K): 10.22 ± 0.1 | relative permittivity at zero frequency ([2]; 313.15 K): 10.11 ± 0.1 | relative permittivity at zero frequency ([2]; 315.65 K): 10 ± 0.1 | relative permittivity at zero frequency ([2]; 318.15 K): 9.9 ± 0.1 | relative permittivity at zero frequency ([2]; 320.65 K): 9.79 ± 0.1 | relative permittivity at zero frequency ([2]; 323.15 K): 9.69 ± 0.1 | relative permittivity at zero frequency ([2]; 325.65 K): 9.59 ± 0.1 | relative permittivity at zero frequency ([2]; 328.15 K): 9.49 ± 0.1 | relative permittivity at zero frequency ([2]; 330.65 K): 9.41 ± 0.09 | relative permittivity at zero frequency ([2]; 333.15 K): 9.31 ± 0.09 | relative permittivity at zero frequency ([2]; 335.65 K): 9.22 ± 0.09 | relative permittivity at zero frequency ([2]; 338.15 K): 9.13 ± 0.09 | relative permittivity at zero frequency ([2]; 340.65 K): 9.04 ± 0.09 | relative permittivity at zero frequency ([2]; 343.15 K): 8.94 ± 0.09 | relative permittivity at zero frequency ([2]; 345.65 K): 8.86 ± 0.09 | relative permittivity at zero frequency ([2]; 348.15 K): 8.76 ± 0.09 | relative permittivity at zero frequency ([2]; 350.65 K): 8.68 ± 0.09 | relative permittivity at zero frequency ([2]; 353.15 K): 8.59 ± 0.09

C1COCCOCCOCCOCCO1 [1,4,7,10,13-pentaoxacyclopentadecane]
Normal melting temperature [1]: -20 ± 1 °C | relative permittivity at zero frequency ([2]; 273.15 K): 17.82 ± 0.18 | relative permittivity at zero frequency ([2]; 275.65 K): 17.56 ± 0.18 | relative permittivity at zero frequency ([2]; 278.15 K): 17.3 ± 0.17 | relative permittivity at zero frequency ([2]; 280.65 K): 17.05 ± 0.17 | relative permittivity at zero frequency ([2]; 283.15 K): 16.81 ± 0.17 | relative permittivity at zero frequency ([2]; 285.65 K): 16.57 ± 0.17 | relative permittivity at zero frequency ([2]; 288.15 K): 16.34 ± 0.16 | relative permittivity at zero frequency ([2]; 290.65 K): 16.11 ± 0.16 | relative permittivity at zero frequency ([2]; 293.15 K): 15.89 ± 0.16 | relative permittivity at zero frequency ([2]; 295.65 K): 15.68 ± 0.16 | relative permittivity at zero frequency ([2]; 298.15 K): 15.48 ± 0.15 | relative permittivity at zero frequency ([2]; 300.65 K): 15.28 ± 0.15 | relative permittivity at zero frequency ([2]; 303.15 K): 15.08 ± 0.15 | relative permittivity at zero frequency ([2]; 305.65 K): 14.88 ± 0.15 | relative permittivity at zero frequency ([2]; 308.15 K): 14.69 ± 0.15 | relative permittivity at zero frequency ([2]; 310.65 K): 14.5 ± 0.15 | relative permittivity at zero frequency ([2]; 313.15 K): 14.31 ± 0.14 | relative permittivity at zero frequency ([2]; 315.65 K): 14.14 ± 0.14 | relative permittivity at zero frequency ([2]; 318.15 K): 13.96 ± 0.14 | relative permittivity at zero frequency ([2]; 320.65 K): 13.79 ± 0.14 | relative permittivity at zero frequency ([2]; 323.15 K): 13.63 ± 0.14 | relative permittivity at zero frequency ([2]; 325.65 K): 13.46 ± 0.13 | relative permittivity at zero frequency ([2]; 328.15 K): 13.3 ± 0.13 | relative permittivity at zero frequency ([2]; 330.65 K): 13.15 ± 0.13 | relative permittivity at zero frequency ([2]; 333.15 K): 13 ± 0.13

C1COCCOCCOCCOCCOCCO1 [1,4,7,10,13,16-hexaoxacyclooctadecane]
Normal melting temperature [1]: 43.4 ± 3 °C | relative permittivity at zero frequency ([2]; 315.65 K): 8.9 ± 0.09 | relative permittivity at zero frequency ([2]; 318.15 K): 8.86 ± 0.09 | relative permittivity at zero frequency ([2]; 320.65 K): 8.82 ± 0.09 | relative permittivity at zero frequency ([2]; 323.15 K): 8.77 ± 0.09 | relative permittivity at zero frequency ([2]; 325.65 K): 8.73 ± 0.09 | relative permittivity at zero frequency ([2]; 328.15 K): 8.69 ± 0.09 | relative permittivity at zero frequency ([2]; 330.65 K): 8.64 ± 0.09 | relative permittivity at zero frequency ([2]; 333.15 K): 8.59 ± 0.09 | relative permittivity at zero frequency ([2]; 335.65 K): 8.54 ± 0.09 | relative permittivity at zero frequency ([2]; 338.15 K): 8.49 ± 0.09 | relative permittivity at zero frequency ([2]; 340.65 K): 8.44 ± 0.08 | relative permittivity at zero frequency ([2]; 343.15 K): 8.39 ± 0.08 | relative permittivity at zero frequency ([2]; 345.65 K): 8.34 ± 0.08 | relative permittivity at zero frequency ([2]; 348.15 K): 8.29 ± 0.08 | relative permittivity at zero frequency ([2]; 350.65 K): 8.24 ± 0.08 | relative permittivity at zero frequency ([2]; 353.15 K): 8.19 ± 0.08
